Measured values as given in PubChem BioAssay (NCI).
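A five-concentration, 48-hour dose response in 96-well plates underlies each endpoint, interpolated linearly between surrounding concentrations. GI50 = concentration required for 50% inhibition of growth. TGI denotes the concentration required for complete inhibition of growth.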

Columns and labels:
Assay in all cases: NCI-60 cell line screen, 48 h
SK-OV-3 ovarian = system: SK-OV-3 ovarian
UACC-257 melanoma = system: UACC-257 melanoma
NCI-H522 lung = system: NCI-H522 lung
NCI-H226 lung = system: NCI-H226 lung
HOP-92 NSCLC = system: HOP-92 NSCLC
UO-31 renal = system: UO-31 renal
CCRF-CEM leukemia = system: CCRF-CEM leukemia
LOX IMVI melanoma = system: LOX IMVI melanoma
SF-295 CNS = system: SF-295 CNS
SK-MEL-5 melanoma = system: SK-MEL-5 melanoma

CC(C)(C)OC(=O)N[C@H]1CC2(C=C(Cl)C(=O)C(Cl)=C2)OC1=O
TGI (SK-OV-3 ovarian): > 46.4 µM | TGI (UACC-257 melanoma): 21.2 µM | TGI (NCI-H522 lung): 7.18 µM | TGI (NCI-H226 lung): > 81.6 µM | TGI (HOP-92 NSCLC): 31.7 µM | TGI (UO-31 renal): 38.8 µM | TGI (CCRF-CEM leukemia): 5.4 µM | TGI (LOX IMVI melanoma): 34.5 µM | TGI (SF-295 CNS): 47.5 µM | TGI (SK-MEL-5 melanoma): 38.5 µM

Cc1cc2c(cc1Cl)SC(N(N(C)C)S(=O)(=O)c1ccc(Cl)cc1)=NS2(=O)=O
GI50 (SK-OV-3 ovarian): 33.8 µM | TGI (SK-OV-3 ovarian): > 100 µM | GI50 (UACC-257 melanoma): 23.8 µM | TGI (UACC-257 melanoma): 88.5 µM | GI50 (NCI-H522 lung): 11.1 µM | TGI (NCI-H522 lung): 43.9 µM | GI50 (NCI-H226 lung): 30.5 µM | TGI (NCI-H226 lung): 89.9 µM | GI50 (HOP-92 NSCLC): 14.8 µM | TGI (HOP-92 NSCLC): 35.3 µM | GI50 (UO-31 renal): 28.3 µM | TGI (UO-31 renal): > 100 µM | GI50 (CCRF-CEM leukemia): 3.29 µM | TGI (CCRF-CEM leukemia): > 100 µM | GI50 (LOX IMVI melanoma): 33.4 µM | TGI (LOX IMVI melanoma): > 100 µM | GI50 (SF-295 CNS): 30.3 µM | TGI (SF-295 CNS): > 100 µM | GI50 (SK-MEL-5 melanoma): 15.4 µM | TGI (SK-MEL-5 melanoma): 28.7 µM

C=C1NC(=O)C(C(C)CC)NC(=O)C2CSCC(NC(=O)CCC(=O)O)C(=O)NC(Cc3ccccc3)C(=O)NC(C)C(=O)NC(CC(C)CC)C(=O)NC(C(=O)NC(Cc3ccccc3)C(=O)N3CCCC3C(=O)N2)C(C)OC(=O)C(CO)NC(=O)C(C(O)COC)N(C)C(=O)C(C(C)C)NC(=O)C(CC(C)CC)NC1=O (stereo not given)
GI50 (SK-OV-3 ovarian): 0.0243 µM | TGI (SK-OV-3 ovarian): > 6 µM | GI50 (UACC-257 melanoma): > 6 µM | TGI (UACC-257 melanoma): > 6 µM | GI50 (NCI-H522 lung): 0.00411 µM | TGI (NCI-H522 lung): 0.359 µM | GI50 (NCI-H226 lung): 0.117 µM | TGI (NCI-H226 lung): > 6 µM | GI50 (HOP-92 NSCLC): 0.0668 µM | TGI (HOP-92 NSCLC): > 4.93 µM | GI50 (UO-31 renal): 0.567 µM | TGI (UO-31 renal): > 6 µM | GI50 (CCRF-CEM leukemia): 0.0137 µM | TGI (CCRF-CEM leukemia): > 6 µM | GI50 (LOX IMVI melanoma): 0.0304 µM | TGI (LOX IMVI melanoma): > 6 µM | GI50 (SF-295 CNS): 0.00594 µM | TGI (SF-295 CNS): > 6 µM | GI50 (SK-MEL-5 melanoma): 0.00637 µM | TGI (SK-MEL-5 melanoma): 0.427 µM

Nc1ncnc2n[nH]c(Nc3ccc(F)cc3)c12
GI50 (SK-OV-3 ovarian): 6.93 µM | TGI (SK-OV-3 ovarian): > 100 µM | GI50 (UACC-257 melanoma): 67.7 µM | TGI (UACC-257 melanoma): > 100 µM | GI50 (NCI-H522 lung): 29.8 µM | TGI (NCI-H522 lung): > 100 µM | GI50 (NCI-H226 lung): 51 µM | TGI (NCI-H226 lung): > 100 µM | GI50 (HOP-92 NSCLC): 12 µM | TGI (HOP-92 NSCLC): 87.4 µM | GI50 (UO-31 renal): 5.93 µM | TGI (UO-31 renal): > 100 µM | GI50 (CCRF-CEM leukemia): 18.4 µM | TGI (CCRF-CEM leukemia): 72.4 µM | GI50 (LOX IMVI melanoma): 10.1 µM | TGI (LOX IMVI melanoma): 34 µM | GI50 (SF-295 CNS): > 100 µM | TGI (SF-295 CNS): > 100 µM | GI50 (SK-MEL-5 melanoma): 19.6 µM | TGI (SK-MEL-5 melanoma): > 100 µM

COc1ccc([C@H]2[C@@H](F)C(=O)N2c2cc(OC)c(OC)c(OC)c2)cc1F
GI50 (SK-OV-3 ovarian): 3.45 µM | TGI (SK-OV-3 ovarian): > 100 µM | GI50 (UACC-257 melanoma): > 100 µM | TGI (UACC-257 melanoma): > 100 µM | GI50 (NCI-H522 lung): 0.0383 µM | TGI (NCI-H522 lung): > 100 µM | GI50 (NCI-H226 lung): 22.2 µM | TGI (NCI-H226 lung): > 100 µM | GI50 (HOP-92 NSCLC): 0.266 µM | TGI (HOP-92 NSCLC): 63.9 µM | GI50 (UO-31 renal): 0.171 µM | TGI (UO-31 renal): > 100 µM | GI50 (CCRF-CEM leukemia): 0.0471 µM | TGI (CCRF-CEM leukemia): > 100 µM | GI50 (LOX IMVI melanoma): 0.0904 µM | TGI (LOX IMVI melanoma): > 100 µM | GI50 (SF-295 CNS): 0.0535 µM | TGI (SF-295 CNS): > 100 µM | GI50 (SK-MEL-5 melanoma): 0.0456 µM | TGI (SK-MEL-5 melanoma): 0.35 µM

OCc1ccc(-c2ccc(-c3ccc(CO)s3)o2)s1
TGI (SK-OV-3 ovarian): 39.2 µM | TGI (UACC-257 melanoma): 0.0669 µM | TGI (NCI-H522 lung): > 100 µM | TGI (NCI-H226 lung): 0.145 µM | TGI (HOP-92 NSCLC): 91.2 µM | TGI (UO-31 renal): > 84.7 µM | TGI (CCRF-CEM leukemia): 72.2 µM | TGI (LOX IMVI melanoma): 79.7 µM | TGI (SF-295 CNS): 74.1 µM | TGI (SK-MEL-5 melanoma): 69.7 µM

N=Nc1c(OC(=O)Nc2cccc(Cl)c2)[nH]c2ccccc12
TGI (SK-OV-3 ovarian): 21.2 µM | TGI (UACC-257 melanoma): 26.7 µM | TGI (NCI-H522 lung): 11.3 µM | TGI (NCI-H226 lung): 34.5 µM | TGI (HOP-92 NSCLC): 18.1 µM | TGI (UO-31 renal): 13.1 µM | TGI (CCRF-CEM leukemia): 21.9 µM | TGI (LOX IMVI melanoma): 20.8 µM | TGI (SF-295 CNS): 5.99 µM | TGI (SK-MEL-5 melanoma): 24 µM

Cc1cc(/C=C/c2ccc3cc(N(C)C)ccc3[n+]2C)c(C)n1-c1ccccc1
GI50 (SK-OV-3 ovarian): 0.142 µM | TGI (SK-OV-3 ovarian): 1 µM | GI50 (UACC-257 melanoma): 0.184 µM | TGI (UACC-257 melanoma): 0.951 µM | GI50 (NCI-H522 lung): 0.103 µM | TGI (NCI-H522 lung): 0.989 µM | GI50 (NCI-H226 lung): 0.117 µM | TGI (NCI-H226 lung): 0.74 µM | GI50 (HOP-92 NSCLC): 0.193 µM | TGI (HOP-92 NSCLC): 1.33 µM | GI50 (UO-31 renal): 0.748 µM | TGI (UO-31 renal): 4.3 µM | GI50 (CCRF-CEM leukemia): 0.218 µM | TGI (CCRF-CEM leukemia): 2.6 µM | GI50 (LOX IMVI melanoma): 0.121 µM | TGI (LOX IMVI melanoma): 0.884 µM | GI50 (SF-295 CNS): 0.11 µM | TGI (SF-295 CNS): 0.409 µM | GI50 (SK-MEL-5 melanoma): 0.0835 µM | TGI (SK-MEL-5 melanoma): 0.226 µM

CC[C@H](Nc1ncnc2nc[nH]c12)c1oc2ccccc2c(=O)c1-c1cccc(F)c1
GI50 (SK-OV-3 ovarian): 24.1 µM | TGI (SK-OV-3 ovarian): > 100 µM | GI50 (UACC-257 melanoma): 25.7 µM | TGI (UACC-257 melanoma): > 100 µM | GI50 (NCI-H522 lung): 19.7 µM | TGI (NCI-H522 lung): > 100 µM | GI50 (NCI-H226 lung): 30.3 µM | TGI (NCI-H226 lung): > 100 µM | GI50 (HOP-92 NSCLC): 4.99 µM | TGI (HOP-92 NSCLC): 63.7 µM | GI50 (UO-31 renal): 5.93 µM | TGI (UO-31 renal): 58 µM | GI50 (CCRF-CEM leukemia): 23.3 µM | TGI (CCRF-CEM leukemia): > 100 µM | GI50 (LOX IMVI melanoma): 26.3 µM | TGI (LOX IMVI melanoma): > 100 µM | GI50 (SF-295 CNS): 18.4 µM | TGI (SF-295 CNS): > 100 µM | GI50 (SK-MEL-5 melanoma): 14 µM | TGI (SK-MEL-5 melanoma): 28.2 µM

COc1ccc(-c2nnc(COc3ccc(NC(=O)Nc4cc(C(F)(F)F)cc(C(F)(F)F)c4)cc3F)o2)cc1
GI50 (SK-OV-3 ovarian): 3.76 µM | TGI (SK-OV-3 ovarian): 12.7 µM | GI50 (UACC-257 melanoma): 2.08 µM | TGI (UACC-257 melanoma): 5.51 µM | GI50 (NCI-H522 lung): 2.15 µM | TGI (NCI-H522 lung): 5.35 µM | GI50 (NCI-H226 lung): 2.63 µM | TGI (NCI-H226 lung): 9.69 µM | GI50 (HOP-92 NSCLC): 1.5 µM | TGI (HOP-92 NSCLC): 4.58 µM | GI50 (UO-31 renal): 2.09 µM | TGI (UO-31 renal): 7.84 µM | GI50 (CCRF-CEM leukemia): 2.86 µM | TGI (CCRF-CEM leukemia): 11.6 µM | GI50 (LOX IMVI melanoma): 1.95 µM | TGI (LOX IMVI melanoma): 4.42 µM | GI50 (SF-295 CNS): 2.11 µM | TGI (SF-295 CNS): 5.21 µM | GI50 (SK-MEL-5 melanoma): 1.73 µM | TGI (SK-MEL-5 melanoma): 3.84 µM

C=C1C(=O)O[C@H]2[C@H]1CC/C(COC(=O)c1c[nH]c3ccccc13)=C\CC[C@@]1(C)O[C@@H]21
GI50 (SK-OV-3 ovarian): 2.24 µM | TGI (SK-OV-3 ovarian): 5.59 µM | GI50 (UACC-257 melanoma): 0.368 µM | TGI (UACC-257 melanoma): 1.49 µM | GI50 (NCI-H522 lung): 0.194 µM | TGI (NCI-H522 lung): 0.412 µM | GI50 (NCI-H226 lung): 0.445 µM | TGI (NCI-H226 lung): 1.96 µM | GI50 (HOP-92 NSCLC): 0.169 µM | TGI (HOP-92 NSCLC): 0.45 µM | GI50 (UO-31 renal): 0.165 µM | TGI (UO-31 renal): 0.313 µM | GI50 (CCRF-CEM leukemia): 0.058 µM | TGI (CCRF-CEM leukemia): 0.972 µM | GI50 (LOX IMVI melanoma): 0.0471 µM | TGI (LOX IMVI melanoma): 0.312 µM | GI50 (SF-295 CNS): 1.94 µM | TGI (SF-295 CNS): 4.47 µM | GI50 (SK-MEL-5 melanoma): 0.204 µM | TGI (SK-MEL-5 melanoma): 0.499 µM

O=C(Nc1ccc(Cl)cc1)c1cccc(NC2=C(Cl)C(=O)N(Cc3ccccc3)C2=O)c1
GI50 (SK-OV-3 ovarian): 29.6 µM | TGI (SK-OV-3 ovarian): > 100 µM | GI50 (UACC-257 melanoma): 15 µM | TGI (UACC-257 melanoma): 43.3 µM | GI50 (NCI-H522 lung): 7.09 µM | TGI (NCI-H522 lung): 29 µM | GI50 (NCI-H226 lung): 4.31 µM | TGI (NCI-H226 lung): 21.3 µM | GI50 (HOP-92 NSCLC): 9.85 µM | TGI (HOP-92 NSCLC): 21.5 µM | GI50 (UO-31 renal): 13 µM | TGI (UO-31 renal): 30.4 µM | GI50 (CCRF-CEM leukemia): 2.73 µM | TGI (CCRF-CEM leukemia): 12.3 µM | GI50 (LOX IMVI melanoma): 11.1 µM | TGI (LOX IMVI melanoma): 23.2 µM | GI50 (SF-295 CNS): 15.5 µM | TGI (SF-295 CNS): 61.9 µM | GI50 (SK-MEL-5 melanoma): 8.15 µM | TGI (SK-MEL-5 melanoma): 20.9 µM
